Values of other authors as cited in patent US20250073222A1, “METHODS FOR THE TREATMENT AND PREVENTION OF NON-VIRAL TICK-BORNE DISEASES AND SYMPTOMS THEREOF” (60 DEGREES PHARMACEUTICALS LLC, priority 2023, published 2025).
Like-named read-outs stand apart in the source and are kept apart here.

What was measured:
Babesia microti = conditions: animals; cited from earlier work
[1] = test system: Trypanosome brucei blood stage forms; conditions: exposure for 90 minutes; cited from earlier work
Babesia parasites = conditions: 100 microM for 2 h; cited from earlier work
[2] = test system: various serovars of Leptospira; conditions: exposure for as little as 30 min; cited from earlier work
Treponema palludum = conditions: 50 or 100 microM for two hours in a 3% oxygen atmosphere; cited from earlier work
Pneumocystis = conditions: mice; cited from earlier work
Babesia [3] = conditions: mice, single doses; cited from earlier work
[4] = test system: P. falciparum gametocytes; conditions: single dose combined with dihydroartemisinin/piperaquine; cited from earlier work
[5] = test system: gametocytes of P. falciparum; conditions: cited from earlier work
[6] = cited from earlier work
[7] = coadministered with chloroquine; cited from earlier work
[8] = test system: free-living gram-negative bacteria and free-living gram-positive bacteria; conditions: cited from earlier work
[9] = test system: intracellular amastigote forms of Leishmania major; conditions: cited from earlier work
[10] = test system: extracellular blood stage forms of Trypanosoma brucei; conditions: cited from earlier work
Plasmodium falciparum = conditions: 600 mg loading dose followed by 200 mg; parasite load three days after last dose; non-immune volunteers; cited from earlier work
B. rodhaini = conditions: cited from earlier work
B. gibsoni = conditions: splenectomized dogs; cited from earlier work
Plasmodium vivax = conditions: 400 mg/day for three days, monotherapy, symptomatic P. vivax malaria patients; cited from earlier work
[11] = loading dose of 600 mg over three days followed by weekly 200 mg for up to one year, cited from earlier work
B. microti = conditions: one patient, prior rituximab; tafenoquine: approved malaria prevention dose as monotherapy for six weeks; cited from earlier work
Babesia [12] = conditions: one and three doses, immunocompromised mice and dogs; cited from earlier work
[13] = single dose of 20 mg/kg, Balb/c (immunocompetent) mice
[14] = single dose of 20 mg/kg, immunocompromised SCID mice

For `COc1cc(NC(C)CCCN)c2nccc(C)c2c1` (centres unmarked) [4-methyl substituted primaquine], the “efficacy against Babesia microti compared with primaquine” value (Babesia microti) is given as “more efficacious than primaquine”.
In the case of `OO` [hydrogen peroxide], the “concentration that killed blood stage forms” value [1] is listed as “approximately 140 microM”, the “effect on Babesia parasites in vitro” value (Babesia parasites) is listed as “kills Babesia parasites in vitro” and the concentrations that killed [2] is listed as < 180 µM. For the same molecule, the effect on growth (Treponema palludum) was “significantly inhibited”.
For `COc1cc(NC(C)CCCN)c2ncccc2c1` (centres unmarked) [primaquine], the “cure of Pneumocystis infections” value (Pneumocystis) is given as “must be combined with clindamycin to achieve the same outcome”, the “dose that cleared Babesia parasitemia” value (Babesia [3]) is given as 100 mg/kg and the “time until gametocyte infectivity was statistically lower than reference values” [4] is given as “by two days post-dosing”. The “effect on gametocytes of P. falciparum” value [5] was “killed by site specific (in bone marrow) excess production of hydrogen peroxide” and the half-life ([6]; in vivo) was “approximately 6 hours”.
In the case of `COc1cc(C)c2c(Oc3cccc(C(F)(F)F)c3)c(OC)cc(NC(C)CCCN)c2n1` (centres unmarked) [tafenoquine, N(4)-[2,6-Dimethoxy-4-methyl-5-[3-(trifluoromethyl)phenoxy]quinolin-8-yl]pentane-1,4-diamine], the “effect on QTC prolongation of chloroquine” value [7] is listed as “did not increase the QTC prolongation”, the “activity against gram-negative versus gram-positive bacteria” value [8] is listed as “much less active against free-living gram-negative bacteria than free-living gram-positive bacteria” and the potency of killing [9] is listed as < 4 µM. For the same molecule, the “cure of Pneumocystis infections” value (Pneumocystis) was “can be administered as monotherapy to cure Pneumocystis infections”, the potency of killing [10] was < 4 µM and the “development of blood stage parasitemia after challenge” value (Plasmodium falciparum) was “none of the tafenoquine subjects did”. The “dose that cleared Babesia parasitemia” value (Babesia [3]) was 20 mg/kg, the “effect on B. rodhaini blood stages (vacuoles)” value (B. rodhaini; single dose of 20 mg/kg in mice) was “induces the formation of large vacuoles” and the parasitemia (B. rodhaini; [13]) was “cleared parasitemia”. The survival (B. rodhaini; [13]) was 100%, the death (B. rodhaini; [14]) was “death was therefore delayed” and the parasitemia (B. rodhaini; [14]) was “cleared initial parasitemia but did not prevent relapses”. The “symptoms of infection such as anorexia, elevated respiration and pulse” value (B. gibsoni) was “alleviated”, the “time by which all patients cleared blood stage parasites” value (Plasmodium vivax) was ≤ 8 days and the “overall rate of adverse events relative to placebo” value [11] was “without increasing the overall rate of adverse events”. For the same molecule, the “specific adverse events with increased risk” value ([11]; reversible, not clinically significant) was “gastrointestinal effects [mild to moderate] and cornea verticillata”, the “half-life in vivo compared with primaquine” value ([6]; FIG. 1A and FIG. 1B legend) was “longer half-life in vivo” and the “clinical outcome of the regimen” value (B. microti) was “the patient was cured”. For the same molecule, the “clearance and cure of Babesia” value (Babesia [12]) was “sufficient to clear and cure Babesia”.
